Assay results from ChEMBL document CHEMBL1133876, “alpha-Ketocarboxylic acid-based inhibitors of protein tyrosine phosphatases” (Bioorg Med Chem Lett, 2001).

Assays:
[1] = target: Tyrosine-protein phosphatase YopH (Yersinia enterocolitica) (UniProt P15273); assay: Inhibitory activity against Yersinia Protein-tyrosine phosphatase YopH
[2] = target: Tyrosine-protein phosphatase YopH (Yersinia enterocolitica) (UniProt P15273); assay: as above; remark: listed apart in the source

Sequence of Tyrosine-protein phosphatase YopH (Yersinia enterocolitica) (P15273 whole entry, looked up): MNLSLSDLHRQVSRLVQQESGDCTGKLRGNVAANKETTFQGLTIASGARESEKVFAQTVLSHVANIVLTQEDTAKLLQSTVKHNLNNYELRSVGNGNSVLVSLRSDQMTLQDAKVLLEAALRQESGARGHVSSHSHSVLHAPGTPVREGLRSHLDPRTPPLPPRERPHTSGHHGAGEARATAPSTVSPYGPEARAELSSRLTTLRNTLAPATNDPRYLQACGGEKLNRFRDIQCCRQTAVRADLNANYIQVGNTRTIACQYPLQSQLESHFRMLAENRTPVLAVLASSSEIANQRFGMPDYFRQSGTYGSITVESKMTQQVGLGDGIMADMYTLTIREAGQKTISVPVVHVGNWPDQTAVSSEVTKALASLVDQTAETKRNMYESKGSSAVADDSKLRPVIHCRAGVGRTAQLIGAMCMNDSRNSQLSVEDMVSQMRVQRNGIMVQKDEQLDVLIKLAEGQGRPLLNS

SMILES	IC50 [1]	Ki [2]
O=C(O)[C@H](O)c1ccccc1	5500 µM	
O=C(O)C(=O)c1cccs1	950 µM	
O=C(O)C(=O)c1ccco1		79 µM
O=C(O)C(=O)c1ccccc1C(=O)O	1500 µM	
COc1ccc(C(=O)C(=O)O)cc1OC	1700 µM	
O=C(O)C(O)c1ccc2ccccc2c1 (stereo not drawn)	3300 µM	
COc1ccc(C(=O)C(=O)O)cc1	150 µM	
O=C(O)C(=O)c1c[nH]c2ccccc12	390 µM	
O=C(O)C(O)c1ccco1 (stereo not drawn)	27 µM	
COc1ccc(C(O)C(=O)O)cc1 (stereo not drawn)	5700 µM	
COC(=O)c1ccc(C(=O)C(=O)O)cc1	2300 µM	
O=C(O)[C@@H](O)c1ccccc1	4900 µM	
O=C(O)C(=O)c1c(F)c(F)c(F)c(F)c1F	790 µM	
O=P(O)(O)C(F)(F)c1ccc2ccccc2c1		179 µM
O=C(O)C(=O)c1ccc([N+](=O)[O-])cc1	2700 µM	
O=C(O)C(=O)c1ccc2ccccc2c1	190 µM	
O=C(O)Cc1ccc2ccccc2c1	3500 µM	
O=C(O)C(=O)c1ccccc1 [BENZOYL FORMIC ACID]	2700 µM	
